One experiment addresses RET (Homo sapiens, UniProt P07949). Description: Kinase inhibition activity test, isotope labeling: RET. The experiment is classed as biochemical. The conditions noted are these: ATP 70 μM; read-out: RET IC50 value (inhibitory activity value). On the procedure:
The purpose of this experiment was to test the inhibitory activity of the compound of the invention for in vitro kinase with the isotope labeling method (the γ phosphate group on ATP was labeled). In this experiment, the in vitro activity inhibition of such kinases as FLT3, VEGFR2, FLT1, FLT4, RET, c-RAF, B-RAF, c-KIT, PDGFα, PDGFβ, FGFR2, FGFR1, EphA2, EphB2, SRC, ABL, ALK and Met was tested respectively. Staurosporine was reference molecule (or referred to as positive control). The kinase inhibition activity of the test compound was expressed by half-inhibitory concentration (IC50) or the kinase activity inhibition rate of the test compound at a concentration of 10 μM. The IC50 value could be obtained by calculating the kinase activity inhibition rate of the test compound at different concentrations.
20 mM 3-(N-morpholinyl)propanesulfonic acid (MOPS); 1 mM ethylenediaminetetraacetic acid (EDTA), 0.01% Brij 35 (Brij-35), 5% glycerol, 0.1% mercaptoethanol, 1 mg/mL bovine serum albumin (BSA), 10 mM manganous dichloride solution (MnCl2), 0.1 mg/mL glutamic acid/tyrosine (4:1) polypeptide (poly(Glu, Tyr)4:1), 50 μM EAIYAAPFAKKK (substrate of FLT3), 0.33 mg/mL myelin basic protein (substrate of VEGFR2), 250 μM KKKSPGEYVNIEFG (substrate of FLT1(h)), 500 μM GGEEEEYFELVKKKK (substrate of FLT4(h)), 250 μM KKKSPGEYVNIEFG (substrate of RET), 0.66 mg/mL myelin basic protein (substrate of C-RAF), 250 μM GGMEDIYFEFMGGKKK (substrate of c-Kit), 250 μM GGMEDIYFEFMGGKKK (substrate of PDGFα), 250 μM KKKSPGEYVNIEFG (substrate of FGFR1), […] GGEEEEYFELVKKKK (substrate of SRC), 50 μM EAIYAAPFAKKK (substrate of ABL), 250 μM KKKSPGEYVNIEFG (substrate of ALK), 250 μM KKKSPGEYVNIEFG (substrate of Met(h)), 10 mM magnesium acetate and γ-^33 P-ATP solution, stop buffer (3% phosphate buffer), washing buffer (75 mM phosphate solution), methanol, Filtermat A membrane, FLT3, VEGFR2, FLT3, VEGFR2, FLT1, FLT4, RET, c-RAF, B-RAF, c-KIT, PDGFRα, PDGFRβ, FGFR2, FGFR1, EphA2, EphB2, SRC, ABL, ALK, Met and other kinases, and the test compounds.
Buffers (8 mM MOPS with pH value of 7.0, 0.2 mM EDTA and 10 mM MnCl2), (5-10 mU) kinases to be tested (FLT3, VEGFR2, FLT1, FLT4, RET, c-RAF, B-RAF, c-KIT, PDGFRα, PDGFRβ, FGFR2, FGFR1, EphA2, EphB2, SRC, ABL, ALK and Met), substrates of kinases to be tested (refer to experimental materials), 10 mM magnesium acetate and γ-^33 P-ATP solution, and test compounds at different concentrations were added to a reaction tube orderly. […] Reaction was terminated with 5 μL 3% phosphate buffer finally, and 10 μL reaction solution was titrated to the Filtermat A membrane; solution was washed for 3 times with 75 mM phosphate solution with each time lasting 5 minutes, and then washed once with methanol. […]

For experiment [1], the system named is human leukemia cell line MV4-11. The note with it: for in vivo tumor growth inhibition effect: oral intragastric q.d., MV4-11 tumors 400-500 mm^3 at start; for inhibition effect compared with positive control sorafenib: sorafenib 3 mg/kg q.d., MV4-11 model.
Protocol: The cell line used was human leukemia cell line MV4-11. The drug (Sorafenib) undergoing anti-leukemia clinical trial was used as the positive control.
NOD-SCID mice at age of 6 to 8 weeks were used, and MV4-11 cells were inoculated at the subcutaneous posterior ribs of the mice at a concentration of 1×10^7/0.1 mL/mouse; after the tumors grew to 400-500 mm^3 (for about 20 days), mice (n=6) were grouped and subject to oral intragastric administration.
Observation targets: Mouse weight and long and short diameters of tumor were measured every 3 days, and tumor volume (length×width^2×0.52) was calculated to observe for diarrhea, convulsion, rash, significant weight loss and other reactions.
For experiment [2], the system named is inter segmental blood vessels of transgenic zebrafish (FLK1-GFP). Kind of experiment: Angiogenesis inhibition activity test in transgenic zebrafish (FLK1-GFP). The format is in vivo. The note with it: concentration of 1 ug/mL, compared with the control group. The protocol:
The new blood vessel inhibition activity of the test compounds was expressed by the inhibition degree of the test compounds for the inter segmental blood vessels of zebrafish at concentrations of 10 ug/mL, 3 ug/mL and 1 ug/mL.
Acquisition of zebrafish embryos: The zebrafish used by this laboratory was fluorescent transgenic zebrafish (FLK1: GFP). Refer to Westerfield method for breeding and cultivation of zebrafish. The day before spawns were obtained, male and female zebrafish were paired at the ratio of 1:1. On the second day, the male and female zebrafish naturally mated and spawned at a temperature of about 28° C. under sufficient illumination. Enough zebrafish embryos were collected, washed, placed into embryo culture media, and put into a 28° C. incubator for culture. The survival of embryos was identified by morphological and phylogenetic standards, and dead embryos were white and taken out timely to prevent deterioration of water quality. […]
Result observation: Thirty one hours after the zebrafish embryos were fertilized, spawns were taken out and hatched zebrafish was peeled off; and then the hatched zebrafish was put onto slide, 1‰ tricaine solution was added to narcotize the fish body, and 1.5% methylcellulose was used to fix the fish body; and the inter segmental vessels (ISV) were observed, counted and photographed under a fluorescence microscope. […]

Read-outs that look alike come from different tables or passages of the source.

RET, sequence (P07949 29-1114): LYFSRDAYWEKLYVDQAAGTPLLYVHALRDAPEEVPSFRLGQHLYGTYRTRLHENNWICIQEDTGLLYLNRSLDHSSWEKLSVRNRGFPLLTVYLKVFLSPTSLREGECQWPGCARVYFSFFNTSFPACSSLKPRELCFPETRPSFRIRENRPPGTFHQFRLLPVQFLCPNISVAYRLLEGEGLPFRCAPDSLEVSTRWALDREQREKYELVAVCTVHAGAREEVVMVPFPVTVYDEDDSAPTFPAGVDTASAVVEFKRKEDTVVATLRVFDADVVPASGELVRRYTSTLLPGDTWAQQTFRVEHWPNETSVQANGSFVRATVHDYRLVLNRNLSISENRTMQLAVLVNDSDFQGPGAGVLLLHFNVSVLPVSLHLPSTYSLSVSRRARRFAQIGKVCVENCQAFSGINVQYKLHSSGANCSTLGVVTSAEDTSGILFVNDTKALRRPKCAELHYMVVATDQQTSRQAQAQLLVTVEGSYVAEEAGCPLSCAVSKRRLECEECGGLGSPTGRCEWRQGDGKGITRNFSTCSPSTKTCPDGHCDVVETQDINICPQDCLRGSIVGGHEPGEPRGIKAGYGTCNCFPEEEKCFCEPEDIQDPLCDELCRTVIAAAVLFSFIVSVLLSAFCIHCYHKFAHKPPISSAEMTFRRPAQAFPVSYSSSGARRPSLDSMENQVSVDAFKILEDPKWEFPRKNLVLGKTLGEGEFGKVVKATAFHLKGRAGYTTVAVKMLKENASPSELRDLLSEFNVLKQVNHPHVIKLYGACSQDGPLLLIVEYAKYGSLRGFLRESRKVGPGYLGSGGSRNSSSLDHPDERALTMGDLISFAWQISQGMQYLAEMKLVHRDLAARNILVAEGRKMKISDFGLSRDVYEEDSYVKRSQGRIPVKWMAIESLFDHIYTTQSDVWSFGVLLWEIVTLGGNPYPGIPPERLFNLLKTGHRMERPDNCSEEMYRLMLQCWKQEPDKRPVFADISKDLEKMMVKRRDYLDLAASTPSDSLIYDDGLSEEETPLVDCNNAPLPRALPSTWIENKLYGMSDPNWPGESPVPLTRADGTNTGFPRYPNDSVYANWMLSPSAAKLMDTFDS

For the compound `O=C(Nc1ccc(Oc2ncnc3[nH]ncc23)cc1)Nc1ccc(Cl)c(C(F)(F)F)c1` [4a-2], at RET, the IC50 (commonly the concentration that inhibits the measured activity by half) is less than 10 µM. Moreover, the “in vivo tumor growth inhibition effect” value in experiment [1] (daily dose of 3 mg/kg or above) is on record as “obviously inhibit tumor growth or extinct tumor completely”. The “inhibition effect compared with positive control sorafenib” value in experiment [1] is given as “superior to the positive control (sorafenib)”.

Take `O=C(Nc1ccc(Oc2ncnc3[nH]ncc23)cc1)Nc1cccc(C(F)(F)F)c1` [4a-6]: at RET, the IC50 stood at 0.004 µM. Moreover, the “angiogenesis inhibition for FLK1 transgenic zebrafish” value in experiment [2] is “inhibit angiogenesis of zebrafish very well”.

Regarding `CC(C)(C)c1cc(NC(=O)Nc2ccc(Oc3ncnc4[nH]ncc34)cc2)on1` [4a-25], on RET, the IC50 is less than 10 µM.

In the case of `CC(C)(C)c1cc(NC(=O)Nc2ccc(Oc3ncnc4[nH]ncc34)c(F)c2)no1` [4a-31], at RET, the IC50 was less than 10 µM. Besides, the “in vivo tumor growth inhibition effect” value in experiment [1] (daily dose of 1 mg/kg) is “obviously inhibit tumor growth”; in experiment [1] (daily dose of 3 mg/kg or above), “extinct tumor completely”. For the same compound, the “inhibition effect compared with positive control sorafenib” value in experiment [1] is recorded as “superior to the positive control (sorafenib)”. In experiment [2], the “angiogenesis inhibition for FLK1 transgenic zebrafish” value was “inhibit angiogenesis of zebrafish very well”.

The values above are taken from US9828375B2, “4-position substituted pyrazolopyrimidine derivative, and use thereof in drug preparation” (Guangxi Wuzhou Pharmaceuticals (Group) Co., Ltd., priority 2012, dated 2017).
